Two compounds from US20160282364A1, “ASSAY FOR INSULIN-DEGRADING ENZYME (IDE) INHIBITORS” (PRESIDENT AND FELLOWS OF HARVARD COLLEGE, priority 2013, published 2016) can be followed below.

The structures appear in SMILES notation.

Data set [1] concerns the target T1, hIDE G361Q (Homo sapiens, UniProt P14735, G361Q).
T1 construct: The reported N-His6-tagged human IDE42-1019 construct was introduced in the expression plasmid pTrcHis-A; made in house; host or cells: E. coli Rosetta 2 (DE3) pLysS
The experiment in a line: Small molecule-enzyme mutant complementation study. The class given is biochemical. The note with it: G361Q vs hIDE WT, batch 3. The text has this: Protease assays with fluorogenic peptide substrates. […] All assay data points were obtained in duplicate.
Site-directed mutagenesis, expression, and purification of human IDE. The reported N-His6-tagged human IDE42-1019 construct was introduced in the expression plasmid pTrcHis-A (Invitrogen) using primers for uracil-specific excision reactions (USER) by Taq (NEB) and Pfu polymerases (PfuTurbo CX®, Agilent). The IDE gene was amplified with the primers 5′-[…]-dU-[…] and 5′-[…] G-dU-[…] (underlined sequences represent overhangs, and italics highlight the PCR priming sequence). Similarly, the pTrcHis-A vector was amplified for USER cloning with the primers 5′-[…] TGA-dU-[…] CCC and 5′-[…]-dU-[…]. Mutant IDE constructs were generated by amplifying the full vector construct with USER cloning primers introducing a mutant overhang (Table 5).
All PCR products were purified on microcentrifuge membrane columns (MinElute®, Qiagen) and quantified by UV absorbance (NanoDrop). Each fragment (0.2 pmol) was combined in a 10 μL reaction mixture containing 20 units DpnI (NEB), 0.75 units of USER mix (Endonuclease VIII and Uracil-DNA Glycosylase, NEB), 20 mM Tris-acetate, 50 mM potassium acetate, 10 mM magnesium acetate, 1 mM dithiothreitol at pH 7.9 (1× NEBuffer 4). The reactions were incubated at 37° C. for 45 min, followed by heating to 80° C. and slow cooling to 30° C. (0.2° C./s). The hybridized constructs were directly used for heat-shock transformation of chemically competent NEB turbo E. coli cells according to the manufacturer's instructions. Transformants were selected on carbenicillin LB agar, and isolated colonies were cultured overnight in 2 mL LB.
The plasmid was extracted using a microcentrifuge membrane column kit (Miniprep®, Qiagen), and the sequence of genes and vector junctions were confirmed by Sanger sequencing (Table 6). The plasmid constructs were transformed by heat-shock into chemically-competent expression strain Rosetta 2 (DE3) pLysS E. coli cells (EMD Millipore), and selected on carbenicillin/chloramphenicol LB agar. Cells transformed with IDE pTrcHis A constructs were cultured overnight at 37° C. in 2 XYT media (31 g in 1 L) containing 100 μg/mL ampicillin and 34 μg/mL chloramphenicol. Expression of His6-tagged IDE proteins was induced when the culture measured OD600 ˜0.6 by addition of isopropyl-β-D-1-thiogalactopyranoside (IPTG) to 1 mM final concentration, incubated overnight at 37° C., followed by centrifugation at 10,000 g for 30 min at 4° C.
Recombinant His6-tagged proteins were purified by Ni(II)-affinity chromatography (IMAC sepharose beads, GE Healthcare®) according to the manufacturer's instructions. The cell pellets were resuspended in pH 8.0 buffer containing 50 mM phosphate, 300 mM NaCl, 10 mM imidazole, 1% Triton X-100 and 1 mM tris(2-carboxyethyl)phosphine hydrochloride (TCEP), and were lysed by probe sonication for 4 min at 4° C., followed by clearing of cell debris by centrifugation at 10,000 g for 25 min at 4° C. The supernatant was incubated with Ni(II)-doped IMAC resin (2 mL) for 3 h at 4° C. The resin was washed twice with the cell resuspension/lysis buffer, and three times with pH 8.0 buffer containing 50 mM phosphate, 300 mM NaCl,50 mM imidazole and 1 mM TCEP. Elution was performed in 2 mL aliquots by raising the imidazole concentration to 250 mM and subsequently to 500 mM in the previous buffer. The fractions were combined and the buffer was exchanged to the recommended IDE buffer (R&D) using spin columns with 100 KDa molecular weight cut off membranes (Millipore). Protein yields were typically ˜10 μg/L, and >90% purity based on gel electrophoresis analysis (Coomassie stained).

Data set [2] deals with GCGR−/− mice. The experiment in a line: Glucose tolerance tests in glucagon receptor knockout mice. The class given is in vivo, mouse. Particulars: 80 mg/kg. The text has this: In vivo studies, general information. Wild-type C57BL/6J and diet-induced obese (DIO) C57BL/6J age-matched male adult mice were purchased from Jackson Laboratories. The age range was 13 to 15 weeks for lean mice, and 24 to 26 weeks for DIO mice. All animals were individually housed on a 14-h light, 10-h dark schedule at the Biology Research Infrastructure (BRI), Harvard University. Cage enrichment included cotton bedding and a red plastic hut. Water and food were available ad libitum, consisting respectively of normal chow (Prolab® RHM 3000) or high-fat diet (60 kcal % fat, D12492, Research Diets Inc.). […]
Glucose tolerance tests GTT and blood glucose measurements. […] Blood glucose was measured using AccuCheck® meters (Aviva) from blood droplets obtained from a small nick at the tip of the tail, at timepoints −45, 0, 15, 30, 45, 60, 90 and 120 min with reference to the time of glucose injection. The area of the blood glucose response profile curve corresponding to each animal was calculated by the trapezoid method^17, using as reference each individual baseline blood glucose measurement prior to glucose administration (t=0). […]

Data set [3] is described as follows: Plasma protein binding assay. The class given is in vitro ADME.

T1 sequence (P14735 42-1019 G361Q): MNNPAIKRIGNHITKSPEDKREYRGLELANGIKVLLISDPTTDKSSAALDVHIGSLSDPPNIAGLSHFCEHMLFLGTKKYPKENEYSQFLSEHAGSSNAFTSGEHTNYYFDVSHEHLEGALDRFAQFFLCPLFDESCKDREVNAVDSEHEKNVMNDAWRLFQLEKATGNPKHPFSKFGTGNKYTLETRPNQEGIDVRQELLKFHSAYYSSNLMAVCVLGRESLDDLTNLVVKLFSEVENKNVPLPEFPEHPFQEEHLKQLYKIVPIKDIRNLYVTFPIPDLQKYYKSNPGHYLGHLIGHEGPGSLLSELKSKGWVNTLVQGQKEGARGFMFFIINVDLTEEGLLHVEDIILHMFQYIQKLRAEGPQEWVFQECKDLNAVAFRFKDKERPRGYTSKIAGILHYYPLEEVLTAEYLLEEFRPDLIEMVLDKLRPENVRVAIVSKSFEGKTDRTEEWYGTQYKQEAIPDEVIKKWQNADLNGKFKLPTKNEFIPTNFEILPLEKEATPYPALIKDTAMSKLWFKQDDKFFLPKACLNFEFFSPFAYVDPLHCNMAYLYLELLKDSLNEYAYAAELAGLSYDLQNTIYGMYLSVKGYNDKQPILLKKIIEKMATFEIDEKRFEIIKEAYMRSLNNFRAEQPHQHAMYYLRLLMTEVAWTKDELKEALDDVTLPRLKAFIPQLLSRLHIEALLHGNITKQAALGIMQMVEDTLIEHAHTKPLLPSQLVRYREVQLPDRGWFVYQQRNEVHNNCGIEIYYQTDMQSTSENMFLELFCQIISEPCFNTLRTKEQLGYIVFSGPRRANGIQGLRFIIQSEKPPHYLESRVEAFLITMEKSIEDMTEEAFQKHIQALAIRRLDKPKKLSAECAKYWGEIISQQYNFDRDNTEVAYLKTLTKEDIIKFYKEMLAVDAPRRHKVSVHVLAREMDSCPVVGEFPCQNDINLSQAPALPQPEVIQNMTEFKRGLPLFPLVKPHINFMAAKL

For `NC(=O)CCC1NC(=O)C=CC(=O)NC(C(N)=O)CCCCNC(=O)C(Cc2ccc(C(=O)c3ccccc3)cc2)NC(=O)C(CC2CCCCC2)NC1=O` (stereo not shown) [Compound 6b], the IC50 shift in data set [1] is 0.8 fold.

In the case of `NCCCC[C@@H]1NC(=O)/C=C/C(=O)N[C@H](C(N)=O)CCCCNC(=O)[C@@H](Cc2ccc(C(=O)c3ccccc3)cc2)NC(=O)[C@H](CC2CCCCC2)NC1=O` [Compound 6bK], the “response to i.p. injected glucose” value in data set [2] (6bK vs vehicle) was “virtually identical”. Also, in data set [2] (vs vehicle), the oral glucose tolerance entry is given as “improvement”. For the same compound, in data set [3], the “unbound in plasma protein binding assay” value is given as ~6%.
